Test results from patent US10011571B2, “Preparation method for aromatic heterocyclic compound used as selective JAK3 and/or JAK1 kinase inhibitor and application of aromatic heterocyclic compound” (SHENZHEN CHIPSCREEN BIOSCIENCES, LTD., priority 2014, dated 2018).

Key:
HeLa cells = assay: Cell growth activity assay (MTS), HeLa cell model; format: cell-based, human; set-up: activity: dose or concentration left out as unconfirmed; conditions: Homo sapiens, HeLa, 72 h; for activity: read-out: HeLa % growth rate
Method in brief: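 HeLa human cervical cancer cells were plated at about 5000 cells/well in a 96-well plate. After 24 h, test compounds were added in concentration gradients (highest final concentration 40 μM), alongside a DMSO solvent control and a negative control. After another 72 h, the medium was replaced with 100 μL fresh medium plus 20 μL MTS/PMS (20:1). Plates were incubated 2 h at 37° C. and absorbance was read at 490 nm to give growth inhibition and GI50.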

JAK1 = JAK1 (Homo sapiens (Human), UniProt P23458); assay: Z'-LYTE enzymatic activity detection, JAK1; format: biochemical; conditions: test compound 300 nM; for inhibition at 0.3 µM: read-out: JAK1 % inhibitory rate @300 nM
Method in brief: (§1)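 GST-tagged human recombinant kinases with Z′-LYTE peptides (Tyr6 for JAK1, Tyr4 for JAK2 and JAK3), ATP from kit, reacted 1 h at room temperature; development 1 h, ratio 445/520 nm at 400 nm excitation gives phosphorylation. Inhibition vs solvent control at 30 nM (JAK2, JAK3) or 300 nM (JAK1); tofacitinib as positive control.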

JAK3 = JAK3 (Homo sapiens (Human), UniProt P52333); assay: Z'-LYTE enzymatic activity detection, JAK3; format: biochemical; conditions: test compound 30 nM; for inhibition at 0.03 µM: read-out: JAK3 % inhibitory rate @30 nM
Method in brief: as §1

JAK1, sequence (P23458 whole entry): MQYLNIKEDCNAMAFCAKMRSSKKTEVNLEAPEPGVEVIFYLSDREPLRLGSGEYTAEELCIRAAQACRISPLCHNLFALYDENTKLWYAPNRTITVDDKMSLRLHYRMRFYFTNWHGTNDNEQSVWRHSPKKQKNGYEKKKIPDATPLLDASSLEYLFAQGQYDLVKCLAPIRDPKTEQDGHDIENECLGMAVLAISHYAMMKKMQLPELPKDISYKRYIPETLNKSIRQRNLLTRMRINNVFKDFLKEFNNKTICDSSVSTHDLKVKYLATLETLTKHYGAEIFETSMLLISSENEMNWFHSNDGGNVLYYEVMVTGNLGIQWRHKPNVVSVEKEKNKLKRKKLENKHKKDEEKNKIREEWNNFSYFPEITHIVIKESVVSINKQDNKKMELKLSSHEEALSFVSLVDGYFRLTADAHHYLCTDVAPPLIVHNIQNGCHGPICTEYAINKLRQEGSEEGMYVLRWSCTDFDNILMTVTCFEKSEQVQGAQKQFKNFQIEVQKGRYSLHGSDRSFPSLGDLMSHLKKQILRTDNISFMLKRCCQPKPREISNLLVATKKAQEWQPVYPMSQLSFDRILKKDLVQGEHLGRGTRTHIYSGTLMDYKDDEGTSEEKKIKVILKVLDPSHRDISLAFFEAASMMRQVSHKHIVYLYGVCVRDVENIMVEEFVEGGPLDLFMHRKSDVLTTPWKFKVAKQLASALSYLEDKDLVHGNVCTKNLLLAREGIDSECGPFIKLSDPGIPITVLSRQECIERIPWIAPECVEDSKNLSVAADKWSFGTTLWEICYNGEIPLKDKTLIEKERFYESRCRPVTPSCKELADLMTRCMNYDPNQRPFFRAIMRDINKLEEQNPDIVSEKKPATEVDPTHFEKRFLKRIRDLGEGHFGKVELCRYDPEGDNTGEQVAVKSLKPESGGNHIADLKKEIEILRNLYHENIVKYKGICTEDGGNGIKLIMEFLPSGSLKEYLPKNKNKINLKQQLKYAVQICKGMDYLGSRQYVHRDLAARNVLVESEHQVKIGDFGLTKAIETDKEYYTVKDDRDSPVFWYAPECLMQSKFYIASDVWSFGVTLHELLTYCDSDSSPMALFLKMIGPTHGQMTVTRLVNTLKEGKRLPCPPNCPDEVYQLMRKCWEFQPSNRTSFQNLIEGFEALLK
JAK3, sequence (P52333 whole entry): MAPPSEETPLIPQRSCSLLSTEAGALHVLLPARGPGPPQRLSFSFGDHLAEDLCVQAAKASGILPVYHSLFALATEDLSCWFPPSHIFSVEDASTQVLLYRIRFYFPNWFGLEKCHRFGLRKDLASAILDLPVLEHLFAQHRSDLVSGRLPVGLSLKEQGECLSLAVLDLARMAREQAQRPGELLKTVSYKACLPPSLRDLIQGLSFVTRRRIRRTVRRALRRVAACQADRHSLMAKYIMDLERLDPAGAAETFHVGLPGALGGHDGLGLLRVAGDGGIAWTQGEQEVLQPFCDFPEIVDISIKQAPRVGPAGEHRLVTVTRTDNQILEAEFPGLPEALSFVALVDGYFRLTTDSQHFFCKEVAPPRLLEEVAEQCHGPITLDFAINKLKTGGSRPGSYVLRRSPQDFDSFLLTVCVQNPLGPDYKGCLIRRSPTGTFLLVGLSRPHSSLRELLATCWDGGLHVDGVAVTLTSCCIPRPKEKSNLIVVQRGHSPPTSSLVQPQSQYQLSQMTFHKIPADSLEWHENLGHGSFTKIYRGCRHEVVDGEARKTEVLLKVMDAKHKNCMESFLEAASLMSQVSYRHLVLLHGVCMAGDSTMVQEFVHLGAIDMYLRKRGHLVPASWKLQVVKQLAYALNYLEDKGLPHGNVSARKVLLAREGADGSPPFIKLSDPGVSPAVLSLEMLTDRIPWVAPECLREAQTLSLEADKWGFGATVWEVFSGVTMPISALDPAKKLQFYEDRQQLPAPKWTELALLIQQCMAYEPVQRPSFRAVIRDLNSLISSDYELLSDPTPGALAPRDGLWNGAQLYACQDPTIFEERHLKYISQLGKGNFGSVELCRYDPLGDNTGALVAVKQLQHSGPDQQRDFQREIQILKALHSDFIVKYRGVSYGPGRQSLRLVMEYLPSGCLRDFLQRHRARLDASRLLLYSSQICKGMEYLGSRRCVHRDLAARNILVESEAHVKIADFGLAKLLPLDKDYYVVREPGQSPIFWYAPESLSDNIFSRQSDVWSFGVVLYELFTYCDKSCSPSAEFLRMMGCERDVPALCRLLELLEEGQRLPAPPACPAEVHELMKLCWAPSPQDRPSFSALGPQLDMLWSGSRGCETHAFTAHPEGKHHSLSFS

Row | SMILES | GI50 (HeLa cells) | activity (HeLa cells) | JAK1 RV (ratio between the inhibitory rate of the test compound and that of Xeljanz) (JAK1) | inhibition at 0.3 µM (JAK1) | JAK3 RV (ratio between the inhibitory rate of the test compound and that of Xeljanz) (JAK3) | inhibition at 0.03 µM (JAK3)
1 | C=CC(=O)N(C)c1cc(Nc2ncc(Cl)c(NCCCNC(=O)c3ccc(C#N)cc3)n2)ccc1F [Example 7, N-(3-(5-chloro-2-(4-fluoro-3-(N-methylacrylamido)phenylamino)pyrimidinyl-4-amino)propyl)-4-cyano-benzamide] | > 40 µM | 98% | 0.58 | 56% | 0.84 | 63%
2 | C=CC(=O)N(C)c1cc(Nc2ncc(Cl)c(NCCCNC(=O)c3ccc(C(F)(F)F)cc3)n2)ccc1F [Example 22, N-(3-(5-chloro-2-(4-fluoro-3-(N-methylacrylamido)phenylamino)pyrimidinyl-4-amino)propyl)-4-trifluoromethylbenzamide] | > 40 µM | 78% | 0.33 | 18% | 0.82 | 75%
3 | C=CC(=O)N(C)c1cc(Nc2ncc(Cl)c(NCCCNC(=O)c3ccc(F)cc3)n2)ccc1F [Example 23, N-(3-(5-chloro-2-(4-fluoro-3-(N-methylacrylamido)phenylamino)pyrimidinyl-4-amino)propyl)-4-fluorobenzamide] |  | 96% | 0.35 | 19% | 0.88 | 81%
